Literature values as cited in PMC4691889 (Genes & Development, 2015).

System: NTMT1
Settings: inhibition of NTMT1, determined in previous studies; ref Richardson et al. 2015

## Nc1ncnc2c1ncn2[C@@H]1O[C@H](CSCC[C@H](N)C(=O)O)[C@@H](O)[C@H]1O [SAH, S-adenosyl-L-homocysteine]
  IC50: 3.3 µM
